Target: HIV-1 RT (Human immunodeficiency virus type 1 group M subtype B, UniProt P03366)
Assay: HIV Reverse Transcriptase Assay: Inhibitor IC50 Determination
Type: biochemical
Settings: purified recombinant enzyme, poly(rA)/oligo(dT)16 template-primer, [3H] dTTP, 37° C. for 30 min; read-out: RT inhibition IC50
Protocol: HIV Reverse Transcriptase Assay: Inhibitor IC50 Determination
HIV-1 RT assay was carried out in 96-well Millipore MultiScreen MADVNOB50 plates using purified recombinant enzyme and a poly(rA)/oligo(dT)16 template-primer in a total volume of 50 μL. The assay constituents were 50 mM Tris/HCl, 50 mM NaCl, 1 mM EDTA, 6 mM MgCl2, 5 μM dTTP, 0.15 μCi [^3H] dTTP, 5 μg/ml poly (rA) pre annealed to 2.5 μg/ml oligo (dT)16 and a range of inhibitor concentrations in a final concentration of 10% DMSO. Reactions were initiated by adding 4 nM HIV-1 RT and after incubation at 37° C. for 30 min, they were stopped by the addition of 50 μl ice cold 20% TCA and allowed to precipitate at 4° C. for 30 min. The precipitates were collected by applying vacuum to the plate and sequentially washing with 3×200 μl of 10% TCA and 2×200 μl 70% ethanol. Finally, the plates were dried and radioactivity counted in a Packard TopCounter after the addition of 25 μl scintillation fluid per well. IC50's were calculated by plotting % inhibition versus log10 inhibitor concentrations.

Compound | IC50
O=c1[nH]nc(Cc2ccc(Cl)c(Oc3ccccc3Cl)c2)s1 [Compound 4, 5-[4-Chloro-3-(2-chloro-phenoxy)-benzyl]-3H-[1,3,4]thiadiazol-2-one] | 195 nM
CCn1c(Cc2ccc(Cl)c(Oc3ccccc3Cl)c2)n[nH]c1=O [Compound 7, 5-[4-Chloro-3-(2-chloro-phenoxy)-benzyl]-4-ethyl-2,4-dihydro-[1,2,4]triazol-3-one] | 447 nM
Cn1c(Cc2ccc(Cl)c(Oc3cccc(Cl)c3)c2)n[nH]c1=O [Compound 8, 5-[4-Chloro-3-(3-chloro-phenoxy)-benzyl]-4-methyl-2,4-dihydro-[1,2,4]triazol-3-one] | 286 nM
CCn1c(Cc2ccc(Cl)c(Oc3cccc(Cl)c3)c2)n[nH]c1=O [Compound 9, 5-[4-Chloro-3-(3-chloro-phenoxy)-benzyl]-4-ethyl-2,4-dihydro-[1,2,4]triazol-3-one] | 444 nM
